Assay results: US6136784A, “Amylin agonist pharmaceutical compositions containing insulin” (Amylin Pharmaceuticals, Inc., priority 1998, dated 2000)
Read-outs that look alike come from different tables or passages of the source. Positions of bridges follow the written chain, without caps; N, C: chain ends. No end group written: not given here.

How the values were obtained:
[1] = tested on: insulin-stimulated glycogen synthesis in soleus muscle; assay: Soleus muscle assay (inhibition of insulin-stimulated glycogen synthesis); format: cell-based, rat; conditions: 7.1 nM insulin
Protocol: Assays of biological activity of amylin agonists in the soleus muscle may be performed using previously described methods (Leighton, B. and Cooper, Nature, 335:632-635 (1988); Cooper, et al., Proc. Natl. Acad. Sci. USA 85:7763-7766 (1988)), in which amylin agonist activity may be assessed by measuring the inhibition of insulin-stimulated glycogen synthesis. The soleus muscle assay is also described below.
Determination of amylin agonist activity of compounds was carried out using the soleus muscle assay as follows. Male Harlan Sprague-Dawley rats of approximately 200 g mass were used in order to maintain mass of the split soleus muscle less than 40 mg. The animals were fasted for 4 hours prior to sacrifice by decapitation. The skin was stripped from the lower limb which was then pinned out on corkboard. The tendo achilles was cut just above os calcis and m. gastrocnemius reflected out from the posterior aspect of the tibia. M. soleus, a small 15-20 mm long, 0.5 mm thick flat muscle on the bone surface of m. gastrocnemius was then stripped clear and the perimysium cleaned off using fine scissors and forceps. […]
^14 C-glycogen determination was performed in a 7 mL scintillation vial. […] The remaining glycogen was redissolved in 1 mL water and 4 mL scintillation fluid and counted for ^14 C. […]

[2] = in vivo, sc; cited from earlier work
[3] = 28 days, cited from earlier work
[4] = self injected three times per day, 14 days, plus usual insulin; cited from earlier work
[5] = intravenous infusion; cited from earlier work
[6] = cited from earlier work
[7] = 30-microgram doses four times per day, 14 days; p=0.003; cited from earlier work
diabetic BB rats = assay: Phenol red gastric emptying assay, diabetic rats; format: in vivo, rat; conditions: sc bolus 5 minutes before gavage, ±0.18 log units
Description: (§1) Methods of measuring the rate of gastric emptying are disclosed in, for example, Young et al., Diabetolocia, 38(6):642-648 (1995). In a phenol red method, which is described below, conscious rats receive by gavage an acoloric gel containing methyl cellulose and a phenol red indicator. Twenty minutes after gavage, animals are anesthetized using halothane, the stomach exposed and clamped at the pyloric and lower esophageal sphincters, removed and opened into an alkaline solution. Stomach content may be derived from the intensity of the phenol red in the alkaline solution, measured by absorbance at a wavelength of 560 nm. […] Tritium in the plasma separated from tail blood is collected at various timepoints and detected in a beta counter. […]
(§2) Gastric emptying was measured using a modification (Plourde et al., Life Sci. 53:857-862 (1993)) of the original method of Scarpignato et al. (Arch. Int. Pharmacodyn. Ther. 246:286-295 (1980)). […] Stomach content was derived from the intensity of the phenol red in the alkaline solution, measured by absorbance at a wavelength of 560 nm. […] In other experiments, particulate gastric contents were centrifuged to clear the solution for absorbance measurements. Where the diluted gastric contents remained turbid, the spectroscopic absorbance due to phenol red was derived as the difference between that present in alkaline vs acetified diluent. […]

[8] = tested on: Harlan Sprague Dawley rats; assay: Tritiated glucose gastric emptying assay; format: in vivo, rat; conditions: sc 1 minute before gavage of tritiated glucose
Description: Methods of measuring the rate of gastric emptying are disclosed in, for example, Young et al., Diabetolocia, 38(6):642-648 (1995). In a phenol red method, which is described below, conscious rats receive by gavage an acoloric gel containing methyl cellulose and a phenol red indicator. Twenty minutes after gavage, animals are anesthetized using halothane, the stomach exposed and clamped at the pyloric and lower esophageal sphincters, removed and opened into an alkaline solution. Stomach content may be derived from the intensity of the phenol red in the alkaline solution, measured by absorbance at a wavelength of 560 nm. In a tritiated glucose method, which is described in Example 9 below, conscious rats are gavaged with tritiated glucose in water. The rats are gently restrained by the tail, the tip of which is anesthetized using lidocaine. Tritium in the plasma separated from tail blood is collected at various timepoints and detected in a beta counter. Test compounds are normally administered about one minute before gavage.
Conscious, non-fasted, Harlan Sprague Dawley rats were restrained by the tail, the tip of which was anesthetized using 2% lidocaine. Tritium in plasma separated from tail blood collected 0, 15, 30, 60, 90 and 120 minutes after gavage was detected in a beta counter. […]

[9] = tested on: Harlan Sprague Dawley (non-diabetic) rats; assay: Phenol red gastric emptying assay, normal rats; format: in vivo, rat; conditions: sc bolus 5 minutes before gavage, ±0.19 log units
Description: as §1, §2

Substance: ^25,28 Pro-h-Amylin [compound 6]
- EC50 [1]: 13.2 nM

Substance: soluble insulin: soluble insulin given by subcutaneous injection
- Duration of action (lasts for) [2]: 4 to 6 h
- Time to absorption following subcutaneous injection [2]: 30 min

Substance: ^25,28,29 Pro-h-Amylin [compound 12]
- Lowering of fructosamine ([3]; 30 micrograms four times a day, p=0.029): 17.5 µmol/L
- Lowering of fructosamine ([3]; 60 micrograms four times a day, p=0.001): 22.6 µmol/L
- Lowering of fructosamine ([3]; 60 micrograms three times a day, p=0.003): 24.1 µmol/L
- Blood-glucose concentrations after a test meal compared to placebo [4]: statistically significant reduction
- Post-meal blood-glucose concentrations [5]: significantly reduced
- Tolerability ([6]; 30-microgram dose): well tolerated
- Lowering of fructosamine compared to placebo ([6]; 30-microgram doses four times per day, 28 days, p=0.003): 33 µmol/L
- Lowering of 24-hour average blood-glucose concentrations compared to placebo ([6]; 30-microgram doses four times per day, 28 days, p=0.009): 31 mg/dL
- Reduction of average blood-glucose concentrations over a 24-hour observation period compared to placebo [7]: 35 mg/dL

Substance: ^2,7 Cyclo-[^2 Asp,^7 Lys]-h-Amylin (KDNTATKATQRLANFLVHSSNNFGAILSSTNVGSNTY; lactam 2-7; ends not checked; UniProt P10997 34-70, looked up, variant C2D C7K) [compound 2]
- EC50 [1]: 6.62 nM

Substance: rat amylin
- ED50 for inhibition of gastric emptying (diabetic BB rats): 2.2 µg
- ED50 derived from the logistic fit (plasma tritium AUC over 30 minutes) [8]: 0.35 µg
- ED50 for inhibition of gastric emptying [9]: 0.43 µg
